Data on 11 compounds can be found in publication PMC6010047, “Design, synthesis and biological evaluation of novel hydroxy-phenyl-1H-benzimidazoles as radical scavengers and UV-protective agents” (Journal of Enzyme Inhibition and Medicinal Chemistry, 2017).

Assay [1] can be described thus: In vitro evaluation of filtering parameters of formulations on PMMA plates (Diffey and Robson). The conditions noted are these: 3% (w/w) in O/W formulation, PMMA plates. An excerpt: It was decided to use a standard formulation oil in water (O/W).
In vitro approaches consist in applying a thin film of sunscreen product on an artificial substrate and test, via spectrophotometric measures, the amount of UV radiation passing through the film. Several different artificial substrates are available for this type of analysis; the substrate should be as closed as possible to the physical characteristics of the skin. Among the substrates available for these purposes, the substrate used in this study to analyse the sunscreen products were PMMA plates. This substrate is easily handled and can be supplied with a reproducible roughness. WW5 PMMA plates have been purchased from Schonberg GmbH (Munich, Germany). The plates, used in this study, have an area of 25 cm^2 and standardized […] roughness. Transmittance and absorbance measurements were carried out by a SHIMAZDU UV-2600 provided of integrating sphere ISR 2600 60 mm and coupled with a SPF determination software and a PMMA plate with approximately 15 μL of glycerin served as reference.
In order to evaluate possible activity as sun filters and antioxidants, suitable in the development of novel class of dualistic sunscreens, the synthesized molecules were included at the concentration of 3% (w/w) in a topical formulation. To this end standard oil in water (O/W) formulation was devised, taking into account the absence of any UV filtering and/or antioxidant molecule, in order to obtain a reference formulation. It was not possible to analyze compound 7 in the formulation because of high instability (phase separation induced by 7). Formulations containing the active ingredients were tested for their SPF efficacy by the in vitro method derived from Diffey and Robson[32], in comparison with the same formulation containing the reference PBSA.
This method is based on the measure of spectral transmission of ultraviolet radiation, with and without the sunscreen applied, through an irregular substrate that simulates the skin surface and permits transmission of UV radiation. Although with some limitation, the test is used to predict SPF in vivo and to screen the filtering activity of new molecules that cannot be tested by in vivo because of lacking of more data concerning safety. The critical wavelength (λc) for the test product is defined as that wavelength where the area under the absorbance spectrum for the irradiated product from 290 nm to λc is 90% of the integral of the absorbance spectrum from 290 nm to 400 nm. Critical wavelength value of greater than 370 nm is necessary, in order to satisfy requirements for broad-spectrum UVB/UVA protection and associated labeling. Polymethylmethacrylate plates (PMMA) with a specific roughness were a satisfactory substrate for this method, because they are UV-transparent, nonfluorescent, photostable and inert to all potential sunscreen formulation ingredients. Table 3 lists the data obtained for the model formulation containing the synthesized compounds. These parameters are necessary to evaluate whether a sunscreen fulfills the requirements for efficacy, and they are SPF, UVA protection factor (UVAPF), UVA/UVB ratio and critical wavelength.
A set of model formulations was prepared: an oil-in-water emulsion (O/W), without sunscreen molecules (Ref. A, Figure 5), prepared as reference formulation; two formulations containing PBSA or oxisol (12) at 3% were prepared (Ref. C and B, respectively, Figure 5), in order to evaluate the filter properties of oxisol (12). Moreover, as stated earlier, SPF booster properties were assayed on other four formulations including a mix of filters with a theoretical SPF value of 15 and 30, adding 3% of oxisol (12) or PBSA (Ref. E, F, G, H, Figure 5). […]

Assay [2] is described as follows: Photochemiluminescence (PCL) method, ACL kit. Particulars: pure compound; Trolox equivalents; mean ± SE of three experiments. Format: biochemical. The method, then:
PCL assay, based on the methodology of Popov and Lewin[23], was used to measure the antioxidant activity of synthesized compounds with a Photochem® apparatus (Analytik Jena, Leipzig, Germany) against superoxide anion radicals generated from luminol, a photosensitizer, when exposed to UV light (Double Bore® phosphor lamp, output 351 nm, 3 mWatt/cm^2). The antioxidant activity was measured using ACL (Antioxidant Capacity of Liposoluble substance) kit provided by the manufacturer designed to measure the antioxidant activity of lipophilic compounds[24]. […] The areas under the curves were calculated using the PCLsoft control and analysis software. […] This inhibition was used as a parameter for quantification and related to the decrease in the integral of PCL intensities caused by varying concentrations of Trolox. The observed inhibition of the signal was plotted against the concentration of Trolox added to the assay medium. The concentration of the added tested compounds was such that the generated luminescence during the 180-s sampling interval fell within the limits of the standard curve. The antioxidant assay was carried out in triplicate for each sample, and 20 μL of the diluted compound in HPLC-grade methanol (ACL) was sufficient to correspond to the standard curve.

Assay [3] in a line: 1,1-Diphenyl-2-picryl-hydrazyl radical (DPPH) assay. It is filed as biochemical. Particulars: Trolox equivalents; mean ± SE of three experiments. As for the experimental part: To 1.5 mL DPPH methanolic solution (0.5 mM) was added 0.750 mL of sample solution proper diluted. Samples absorbance measurements were evaluated with a UV-VIS spectrophotometer (Thermo Spectronic Helios γ, Cambridge, UK) at fixed wavelength of 517 nm. Blank sample was prepared adding methanol to DPPH solution and Trolox was used as standard reference to achieve a calibration curve. The radical-scavenging activity is expressed as inhibition ratio of initial concentration of DPPH radical and is calculated according to the formula: Inhibition percentage (Ip) = [(AB-As)/AB]·100; where AB and As are, respectively, the absorbance values of blank reaction and of the tested sample[25].
Background: Loss of DPPH colour is used to gauge radical scavenging.

Turning to “2-(2,4-Dihydroxy-phenyl)-1H-benzimidazole [Compound 9]”, in assay [1], the SPF came to 3.57 ± 0.23, the UVA/UVB is on record as 1.10 ± 0.05, the UVAPF was determined as 1.89 ± 0.05 and the “λc (critical wavelength)” value is 380 nm. Also, in assay [2], the PCL is reported as 198.53 ± 2.65 μmolTrolox/mmol. Further, the DPPH in assay [3] came out at 16.47 ± 0.54 μmolTrolox/mmol.
Regarding “2-(2-Hydroxy-phenyl)-1H-benzimidazole [Compound 10]”, in assay [1], the SPF is 1.96 ± 0.14, the UVA/UVB is 1.01 ± 0.02, the UVAPF is reported as 1.06 ± 0.08 and the “λc (critical wavelength)” value is 378 nm. Also, the PCL in assay [2] was 10.93 ± 0.05 μmolTrolox/mmol. For the same compound, the DPPH in assay [3] came out at 0.87 ± 0.05 μmolTrolox/mmol.
For the compound `O=S(=O)(O)c1ccc2[nH]c(-c3ccc(O)cc3)nc2c1` [Compound 2, 2-(4-Hydroxy-phenyl)-1H-benzimidazole-5-sulfonic acid], in assay [1], the SPF is reported as 4.74 ± 0.15, the UVA/UVB is recorded as 0.51 ± 0.01, the UVAPF was found to be 1.36 ± 0.07 and the “λc (critical wavelength)” value is 346 nm. In addition, the PCL in assay [2] is recorded as 11.36 ± 0.08 μmolTrolox/mmol. Besides, the DPPH in assay [3] is 2.04 ± 0.15 μmolTrolox/mmol.
For the compound `O=S(=O)(O)c1ccc2[nH]c(-c3ccccc3O)nc2c1` [Compound 4, 2-(2-Hydroxy-phenyl)-1H-benzimidazole-5-sulfonic acid], in assay [1], the SPF was found to be 2.22 ± 0.13, the UVA/UVB was determined as 0.96 ± 0.01, the UVAPF worked out at 1.06 ± 0.07 and the “λc (critical wavelength)” value is 355 nm. The PCL in assay [2] turned out to be 2.06 ± 0.05 μmolTrolox/mmol. The DPPH in assay [3] amounted to 2.03 ± 0.09 μmolTrolox/mmol.
Consider `O=S(=O)(O)c1ccc2[nH]c(-c3ccc(O)cc3O)nc2c1` [Compound 5, 2-(2,4-Dihydroxy-phenyl)-1H-benzimidazole-5-sulfonic acid], for which, in assay [1], the SPF is on record as 2.18 ± 0.14, the UVA/UVB came to 1.13 ± 0.01, the UVAPF worked out at 1.21 ± 0.04 and the “λc (critical wavelength)” value came to 370 nm. Further, the PCL in assay [2] was determined as 159.1 ± 4.3 μmolTrolox/mmol. In addition, the DPPH in assay [3] is on record as 21.41 ± 043 μmolTrolox/mmol.
In the case of `O=S(=O)(O)c1ccc2[nH]c(-c3ccc(O)c(O)c3O)nc2c1` [Compound 6, 2-(2,3,4-Trihydroxy-phenyl)-1H-benzimidazole-5-sulfonic acid], in assay [1], the SPF worked out at 5.99 ± 0.12, the UVA/UVB was found to be 0.89 ± 0.03, the UVAPF was found to be 2.72 ± 0.08 and the “λc (critical wavelength)” value is listed as 383 nm. In addition, in assay [2], the PCL worked out at 1924.35 ± 101.82 μmolTrolox/mmol. Moreover, the DPPH in assay [3] came to 1362.12 ± 133.96 μmolTrolox/mmol.
With `Oc1ccc(-c2nc3ccccc3[nH]2)cc1O` [Compound 8, 2-(3,4-Dihydroxy-phenyl)-1H-benzimidazole], in assay [1], the SPF was determined as 5.20 ± 0.20, the UVA/UVB was found to be 0.78 ± 0.02, the UVAPF came out at 1.90 ± 0.09 and the “λc (critical wavelength)” value worked out at 368 nm. In addition, in assay [2], the PCL is recorded as 19190.6 ± 443.18 μmolTrolox/mmol. For the same compound, the DPPH in assay [3] is listed as 1974.58 ± 16.89 μmolTrolox/mmol.
For `Oc1ccc(-c2nc3ccccc3[nH]2)c(O)c1O` [Compound 11, 2-(2,3,4-Trihydroxy-phenyl)-1H-benzimidazole], in assay [1], the SPF is 2.85 ± 0.22, the UVA/UVB was 0.90 ± 0.01, the UVAPF is listed as 1.35 ± 0.1 and the “λc (critical wavelength)” value came out at 381 nm. In assay [2], the PCL was 1614.675 ± 19.95 μmolTrolox/mmol. Further, the DPPH in assay [3] was determined as 1811.02 ± 61.7 μmolTrolox/mmol.
With `O=C(O)c1ccc2[nH]c(-c3ccc(O)cc3O)nc2c1` [Compound 13, 2-(2,4-Dihydroxy-phenyl)-1H-benzimidazole-5-carboxylic acid], in assay [1], the SPF is given as 2.85 ± 0.17, the UVA/UVB is recorded as 1.27 ± 0.02, the UVAPF turned out to be 1.58 ± 0.10 and the “λc (critical wavelength)” value amounted to 368 nm. Besides, in assay [2], the PCL was 160.26 ± 4.09 μmolTrolox/mmol. For the same compound, the DPPH in assay [3] came to 32.48 ± 2.38 μmolTrolox/mmol.
With `O=C(O)c1ccc2[nH]c(-c3ccc(O)cc3)nc2c1` [Compound 14, 2-(4-Hydroxy-phenyl)-1H-benzimidazole-5-carboxylic acid], in assay [1], the SPF came to 6.01 ± 0.31, the UVA/UVB came out at 0.70 ± 0.05, the UVAPF is reported as 2.04 ± 0.11 and the “λc (critical wavelength)” value came to 350 nm. Further, in assay [2], the PCL stood at 6.98 ± 0.27 μmolTrolox/mmol. In addition, the DPPH in assay [3] came out at 1.185 ± 0.02 μmolTrolox/mmol.
`O=C(O)c1ccc2[nH]c(-c3ccc(O)c(O)c3O)nc2c1` [Compound 15, 2-(2,3,4-Trihydroxy-phenyl)-1H-benzimidazole-5-carboxylic acid]: in assay [1], the SPF is recorded as 3.69 ± 0.24, the UVA/UVB was 0.96 ± 0.08, the UVAPF was 1.87 ± 0.08 and the “λc (critical wavelength)” value came out at 382 nm. Also, in assay [2], the PCL is recorded as 1515.65 ± 75.56 μmolTrolox/mmol. For the same compound, the DPPH in assay [3] worked out at 1241.03 ± 9.43 μmolTrolox/mmol.
